In one experiment the target is T1, human NPC1L1 (Homo sapiens, UniProt Q9UHC9).
T1 construct: expressed in transfected cells; host or cells: HEK-293 (geneticin selection)
T1 sequence (Q9UHC9 22-1359): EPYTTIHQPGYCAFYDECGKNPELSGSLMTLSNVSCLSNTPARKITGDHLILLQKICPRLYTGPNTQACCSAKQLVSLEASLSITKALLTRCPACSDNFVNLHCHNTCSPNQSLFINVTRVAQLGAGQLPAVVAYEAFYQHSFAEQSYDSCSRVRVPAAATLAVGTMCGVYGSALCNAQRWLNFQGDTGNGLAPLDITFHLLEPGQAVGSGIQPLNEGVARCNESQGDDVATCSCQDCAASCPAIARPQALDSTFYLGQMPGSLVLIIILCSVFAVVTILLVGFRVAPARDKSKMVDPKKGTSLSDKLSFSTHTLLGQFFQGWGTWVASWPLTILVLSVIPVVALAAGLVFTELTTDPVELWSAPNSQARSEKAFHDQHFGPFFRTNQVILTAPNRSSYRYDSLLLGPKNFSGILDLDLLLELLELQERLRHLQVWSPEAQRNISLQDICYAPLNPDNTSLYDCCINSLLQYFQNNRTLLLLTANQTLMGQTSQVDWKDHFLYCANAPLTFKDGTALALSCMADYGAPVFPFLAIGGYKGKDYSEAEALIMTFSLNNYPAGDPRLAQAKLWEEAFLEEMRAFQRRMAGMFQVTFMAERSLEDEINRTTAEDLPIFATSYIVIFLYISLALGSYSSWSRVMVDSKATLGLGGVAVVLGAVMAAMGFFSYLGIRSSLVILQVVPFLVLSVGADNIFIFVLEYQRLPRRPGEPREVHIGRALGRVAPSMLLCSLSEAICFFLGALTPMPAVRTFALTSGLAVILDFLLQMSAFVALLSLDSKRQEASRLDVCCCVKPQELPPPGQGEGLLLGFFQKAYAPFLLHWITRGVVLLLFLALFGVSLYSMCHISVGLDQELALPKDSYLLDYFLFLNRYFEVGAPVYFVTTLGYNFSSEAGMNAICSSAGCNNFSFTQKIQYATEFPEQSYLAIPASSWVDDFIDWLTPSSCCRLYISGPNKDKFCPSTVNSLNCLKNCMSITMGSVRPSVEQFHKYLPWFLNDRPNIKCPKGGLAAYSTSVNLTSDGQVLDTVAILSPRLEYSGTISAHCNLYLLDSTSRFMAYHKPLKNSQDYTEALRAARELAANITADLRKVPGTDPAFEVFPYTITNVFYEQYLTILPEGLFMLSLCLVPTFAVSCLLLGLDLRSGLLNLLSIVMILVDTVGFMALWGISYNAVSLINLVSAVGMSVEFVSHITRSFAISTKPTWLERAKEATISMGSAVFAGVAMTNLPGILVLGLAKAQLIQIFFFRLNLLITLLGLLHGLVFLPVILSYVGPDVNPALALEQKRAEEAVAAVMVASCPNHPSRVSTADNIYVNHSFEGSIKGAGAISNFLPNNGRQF
Nature of the experiment: NPC1L1 Binding Assay, human. The settings on record: HEK-293 cells expressing human NPC1L1; competition with 250 nM BODIPY-labeled glucuronidated ezetimibe, 4 h at 37° C. The method, then: HEK-293 cells expressing human NPC1L1 were plated into 384-well black/clear plates (BD Biosciences, Bedford Mass.) for binding experiments the following day. Cell growth media (DMEM, 10% fetal calf serum, 1 mg/mL geneticin, 100 Units/mL penicillin) was aspirated. Cell growth media ([…]) containing 250 nM BODIPY-labeled glucuronidated ezetimibe was added to each well. Cell growth media ([…] containing the indicated concentration of compound was then added to the wells unlabeled glucuronidated ezetimibe […]) was used to determine nonspecific binding. The binding reaction was allowed to proceed for 4 h at 37° C. Subsequently the cell growth media was aspired and the cells washed once with PBS. The remaining fluorescent labeled glucuronidated ezetimibe bound to the cells was quantified using a FlexStation plate reader (Molecular Devices, Sunnyvale Calif.) to measure fluorescence intensity. Ki values were determined from competition binding curves (n=4 for each point) using Prism and Activity Base software.

The next experiment has as its target NPC1L1 (Rattus norvegicus, UniProt Q6T3U3). Briefly: NPC1L1 Binding Assay, rat. The settings on record: competition with BODIPY-labeled glucuronidated ezetimibe.

With `O=C(Nc1c(F)cccc1F)N1CCC2(CC1)C(=O)N(c1ccccc1)C2c1ccccc1` (stereo not drawn), the Ki – broadly, a dissociation constant, usually derived from enzyme kinetics or from competition with a known ligand – at human NPC1L1 amounted to 9.87 µM; on NPC1L1, 6.63 µM.
For `O=C(Nc1cccc(Cl)c1Cl)N1CCC2(CC1)C(=O)N(c1ccccc1)C2c1ccccc1` (stereo not drawn), in that order: 6.62 µM and 4.95 µM.
`Cc1ccc(C)c(NC(=O)N2CCC3(CC2)C(=O)N(c2ccccc2)C3c2ccccc2)c1` (stereo not drawn): the figures for the Ki on human NPC1L1 and at NPC1L1 were 3.9 µM and 3.5 µM, respectively.
For `Cc1cccc(Cl)c1NC(=O)N1CCC2(CC1)C(=O)N(c1ccccc1)C2c1ccccc1` (stereo not drawn) [drawing 434], the Ki was determined as 2.32 µM on human NPC1L1 and 1.17 µM at NPC1L1.
As to `Cc1c(Cl)cccc1NC(=O)N1CCC2(CC1)C(=O)N(c1ccccc1)C2c1ccccc1` (stereo not drawn) [drawing 435], the values for the Ki on human NPC1L1 and on NPC1L1 were 3.77 µM and 3.62 µM, respectively.
Regarding `Cc1cccc(Cl)c1NC(=O)N1CCC2(CC1)C(=O)N(c1ccccc1)C2c1ccccc1` (stereo not drawn) [drawing 443], the values for the Ki at human NPC1L1 and on NPC1L1 were 1.01 µM and 1.06 µM, respectively.

Values taken from patent US20080076750A1, “Azetidinone Derivatives and Methods of Use Thereof” (priority 2006, published 2008).
